“And” between values parts separate entries of the source, which are not always exact repeats. Equal values may be shown once. Inconclusive results and toxic doses are left out.
Test system: CD2F1 mice, L1210 leukemia ip, survival T/C
Test: NCI In Vivo Anticancer Drug Screen. Data for tumor model L1210 Leukemia (intraperitoneal) in CD2F1 (CDF1) mice
Conditions: higher = longer survival
How it was run: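 Read-out first: treated-group measurement over vehicle-control measurement, expressed as a ratio. Animals bore a transplanted tumor line and were dosed with compound or vehicle.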

Q: `O=P1(N(CCCl)CCCl)NCCCO1` (stereo not given) was tested. Which T/C (endpoint: mean survival time, dose: 10.0 mg/kg/injection, schedule: Q01DX009 (ip), vehicle: saline) did it give?
A: 124 % of control

Q: What about the T/C (endpoint: mean survival time, dose: 12.5 mg/kg/injection, schedule: Q01DX005 (ip), vehicle: water) of the same compound?
A: 120 % of control and 122 % of control

Q: What about the T/C (endpoint: mean survival time, dose: 12.5 mg/kg/injection, schedule: Q01DX009 (ip), vehicle: saline) of the same compound?
A: 114 % of control and 123 % of control

Q: What about the T/C (endpoint: mean survival time, dose: 20.0 mg/kg/injection, schedule: Q01DX009 (ip), vehicle: saline) of the same compound?
A: 122 % of control

Q: What about the T/C (endpoint: mean survival time, dose: 20.0 mg/kg/injection, schedule: Q03DX003 (ip), vehicle: saline) of the same compound?
A: 124 % of control

Q: And the T/C (endpoint: mean survival time, dose: 20.0 mg/kg/injection, schedule: Q04DX003 (ip), vehicle: saline)?
A: 114 % of control and 115 % of control

Q: And the T/C (endpoint: mean survival time, dose: 25.0 mg/kg/injection, schedule: Q01DX001 (ip), vehicle: DMSO)?
A: 115 % of control

Q: What about the T/C (endpoint: mean survival time, dose: 30.0 mg/kg/injection, schedule: Q04DX003 (ip), vehicle: water) of the same compound?
A: 113 % of control

Q: What about the T/C (endpoint: mean survival time, dose: 31.3 mg/kg/injection, schedule: Q01DX001 (ip), vehicle: DMSO) of the same compound?
A: 114 % of control

Q: What about the T/C (endpoint: mean survival time, dose: 31.3 mg/kg/injection, schedule: Q01DX001 (ip), vehicle: saline) of the same compound?
A: 113 % of control

Q: What about the T/C (endpoint: mean survival time, dose: 38.9 mg/kg/injection, schedule: Q01DX001 (ip), vehicle: water) of the same compound?
A: 119 % of control

Q: And the T/C (endpoint: mean survival time, dose: 40.0 mg/kg/injection, schedule: Q01DX007 (ip), vehicle: saline)?
A: 163 % of control

Q: And the T/C (endpoint: mean survival time, dose: 40.0 mg/kg/injection, schedule: Q01DX009 (ip), vehicle: saline)?
A: 170 % of control

Q: What about the T/C (endpoint: mean survival time, dose: 40.0 mg/kg/injection, schedule: Q03DX003 (ip), vehicle: saline) of the same compound?
A: 151 % of control

Q: And the T/C (endpoint: mean survival time, dose: 40.0 mg/kg/injection, schedule: Q04DX003 (ip), vehicle: saline)?
A: 155 % of control

Q: And the T/C (endpoint: mean survival time, dose: 50.0 mg/kg/injection, schedule: Q01DX001 (ip), vehicle: DMSO)?
A: 117 % of control

Q: And the T/C (endpoint: mean survival time, dose: 50.0 mg/kg/injection, schedule: Q01DX001 (ip), vehicle: Klucel (hydroxypropylcellulose) (HPC))?
A: 113 % of control

Q: And the T/C (endpoint: mean survival time, dose: 50.0 mg/kg/injection, schedule: Q01DX001 (ip), vehicle: other)?
A: 115 % of control

Q: And the T/C (endpoint: mean survival time, dose: 50.0 mg/kg/injection, schedule: Q01DX009 (ip), vehicle: saline)?
A: 165 % of control and 173 % of control

Q: And the T/C (endpoint: mean survival time, dose: 62.5 mg/kg/injection, schedule: Q01DX001 (ip), vehicle: Klucel (hydroxypropylcellulose) (HPC))?
A: 122 % of control

Q: And the T/C (endpoint: mean survival time, dose: 62.5 mg/kg/injection, schedule: Q01DX001 (ip), vehicle: saline with Tween-80)?
A: 124 % of control

Q: And the T/C (endpoint: mean survival time, dose: 62.5 mg/kg/injection, schedule: Q01DX001 (ip), vehicle: water)?
A: 121 % of control and 122 % of control

Q: What about the T/C (endpoint: mean survival time, dose: 80.0 mg/kg/injection, schedule: Q03DX003 (ip), vehicle: saline) of the same compound?
A: 192 % of control

Q: And the T/C (endpoint: mean survival time, dose: 80.0 mg/kg/injection, schedule: Q04DX003 (ip), vehicle: saline)?
A: 187 % of control

Q: And the T/C (endpoint: mean survival time, dose: 100.0 mg/kg/injection, schedule: Q01DX001 (ip), vehicle: DMSO)?
A: 158 % of control

Q: And the T/C (endpoint: mean survival time, dose: 108.0 mg/kg/injection, schedule: Q01DX001 (ip), vehicle: saline)?
A: 164 % of control

Q: What about the T/C (endpoint: mean survival time, dose: 108.0 mg/kg/injection, schedule: Q01DX001 (ip), vehicle: water) of the same compound?
A: 169 % of control

Q: And the T/C (endpoint: mean survival time, dose: 125.0 mg/kg/injection, schedule: Q01DX001 (ip), vehicle: Klucel (hydroxypropylcellulose) (HPC))?
A: 170 % of control

Q: What about the T/C (endpoint: mean survival time, dose: 125.0 mg/kg/injection, schedule: Q01DX001 (ip), vehicle: saline with Tween-80) of the same compound?
A: 150 % of control and 159 % of control

Q: What about the T/C (endpoint: mean survival time, dose: 125.0 mg/kg/injection, schedule: Q01DX001 (ip), vehicle: water) of the same compound?
A: 156 % of control and 173 % of control

Q: What about the T/C (endpoint: mean survival time, dose: 133.0 mg/kg/injection, schedule: Q01DX001 (ip), vehicle: saline) of the same compound?
A: 167 % of control

Q: And the T/C (endpoint: mean survival time, dose: 135.0 mg/kg/injection, schedule: Q01DX001 (ip), vehicle: saline)?
A: 158 % of control and 171 % of control

Q: What about the T/C (endpoint: mean survival time, dose: 150.0 mg/kg/injection, schedule: Q01DX001 (ip), vehicle: water) of the same compound?
A: 172 % of control

Q: And the T/C (endpoint: mean survival time, dose: 160.0 mg/kg/injection, schedule: Q01DX009 (ip), vehicle: saline)?
A: 124 % of control

Q: And the T/C (endpoint: mean survival time, dose: 180.0 mg/kg/injection, schedule: Q01DX001 (ip), vehicle: water)?
A: 176 % of control

Q: What about the T/C (endpoint: mean survival time, dose: 196.0 mg/kg/injection, schedule: Q01DX001 (ip), vehicle: saline) of the same compound?
A: 201 % of control

Q: What about the T/C (endpoint: mean survival time, dose: 200.0 mg/kg/injection, schedule: Q01DX001 (ip), vehicle: Klucel (hydroxypropylcellulose) (HPC)) of the same compound?
A: 164 % of control and 198 % of control

Q: What about the T/C (endpoint: mean survival time, dose: 200.0 mg/kg/injection, schedule: Q01DX001 (ip), vehicle: other) of the same compound?
A: 189 % of control

Q: And the T/C (endpoint: mean survival time, dose: 200.0 mg/kg/injection, schedule: Q01DX005 (ip), vehicle: water)?
A: 191 % of control

Q: And the T/C (endpoint: mean survival time, dose: 200.0 mg/kg/injection, schedule: Q04DX003 (ip), vehicle: saline)?
A: 205 % of control

Q: What about the T/C (endpoint: mean survival time, dose: 250.0 mg/kg/injection, schedule: Q01DX001 (ip), vehicle: saline with Tween-80) of the same compound?
A: 190 % of control

Q: And the T/C (endpoint: mean survival time, dose: 250.0 mg/kg/injection, schedule: Q01DX001 (ip), vehicle: water)?
A: 188 % of control and 261 % of control and 280 % of control

Q: What about the T/C (endpoint: mean survival time, dose: 320.0 mg/kg/injection, schedule: Q04DX003 (ip), vehicle: saline) of the same compound?
A: 117 % of control

Q: What about the T/C (endpoint: mean survival time, dose: 400.0 mg/kg/injection, schedule: Q01DX001 (ip), vehicle: Klucel (hydroxypropylcellulose) (HPC)) of the same compound?
A: 187 % of control

Q: And the T/C (endpoint: mean survival time, dose: 400.0 mg/kg/injection, schedule: Q01DX001 (ip), vehicle: other)?
A: 183 % of control

Q: And the T/C (endpoint: mean survival time, dose: 450.0 mg/kg/injection, schedule: Q01DX001 (ip), vehicle: saline)?
A: 209 % of control

Q: And the T/C (endpoint: mean survival time, dose: 500.0 mg/kg/injection, schedule: Q01DX001 (ip), vehicle: Klucel (hydroxypropylcellulose) (HPC))?
A: 173 % of control

Q: And the T/C (endpoint: mean survival time, dose: 500.0 mg/kg/injection, schedule: Q01DX001 (ip), vehicle: saline with Tween-80)?
A: 197 % of control

Q: And the T/C (endpoint: mean survival time, dose: 500.0 mg/kg/injection, schedule: Q01DX001 (ip), vehicle: water)?
A: 253 % of control and 223 % of control and 271 % of control

Q: What about the T/C (endpoint: median survival time, dose: 12.5 mg/kg/injection, schedule: Q01DX009 (ip), vehicle: saline) of the same compound?
A: 120 % of control and 122 % of control

Q: What about the T/C (endpoint: median survival time, dose: 20.0 mg/kg/injection, schedule: Q01DX009 (ip), vehicle: water) of the same compound?
A: 121 % of control

Q: And the T/C (endpoint: median survival time, dose: 25.0 mg/kg/injection, schedule: Q01DX001 (ip), vehicle: saline)?
A: 117 % of control and 118 % of control

Q: What about the T/C (endpoint: median survival time, dose: 25.0 mg/kg/injection, schedule: Q01DX001 (ip), vehicle: water) of the same compound?
A: 113 % of control

Q: And the T/C (endpoint: median survival time, dose: 31.25 mg/kg/injection, schedule: Q01DX001 (ip), vehicle: water)?
A: 116 % of control and 119 % of control (2×)

Q: What about the T/C (endpoint: median survival time, dose: 40.0 mg/kg/injection, schedule: Q01DX009 (ip), vehicle: water) of the same compound?
A: 153 % of control

Q: And the T/C (endpoint: median survival time, dose: 50.0 mg/kg/injection, schedule: Q01DX005 (ip), vehicle: saline)?
A: 169 % of control

Q: What about the T/C (endpoint: median survival time, dose: 50.0 mg/kg/injection, schedule: Q01DX009 (ip), vehicle: saline) of the same compound?
A: 178 % of control and 182 % of control

Q: And the T/C (endpoint: median survival time, dose: 50.0 mg/kg/injection, schedule: Q03DX003 (ip), vehicle: saline)?
A: 162 % of control

Q: And the T/C (endpoint: median survival time, dose: 62.5 mg/kg/injection, schedule: Q01DX001 (ip), vehicle: water)?
A: 151 % of control

Q: What about the T/C (endpoint: median survival time, dose: 66.0 mg/kg/injection, schedule: Q07DX003 (sc), vehicle: saline) of the same compound?
A: 155 % of control and 162 % of control

Q: What about the T/C (endpoint: median survival time, dose: 100.0 mg/kg/injection, schedule: Q01DX001 (ip), vehicle: water) of the same compound?
A: 155 % of control and 160 % of control

Q: And the T/C (endpoint: median survival time, dose: 100.0 mg/kg/injection, schedule: Q01DX009 (ip), vehicle: saline)?
A: 114 % of control

Q: And the T/C (endpoint: median survival time, dose: 100.0 mg/kg/injection, schedule: Q03DX003 (ip), vehicle: saline)?
A: 202 % of control

Q: And the T/C (endpoint: median survival time, dose: 108.0 mg/kg/injection, schedule: Q01DX001 (iv), vehicle: saline)?
A: 171 % of control

Q: What about the T/C (endpoint: median survival time, dose: 125.0 mg/kg/injection, schedule: Q01DX001 (ip), vehicle: water) of the same compound?
A: 183 % of control

Q: And the T/C (endpoint: median survival time, dose: 150.0 mg/kg/injection, schedule: Q01DX001 (ip), vehicle: saline)?
A: 169 % of control

Q: And the T/C (endpoint: median survival time, dose: 250.0 mg/kg/injection, schedule: Q01DX001 (ip), vehicle: water)?
A: 173 % of control

Q: What about the T/C (endpoint: median survival time, dose: 330.0 mg/kg/injection, schedule: Q07DX003 (ip), vehicle: saline) of the same compound?
A: 210 % of control

Q: And the T/C (endpoint: median survival time, dose: 450.0 mg/kg/injection, schedule: Q01DX001 (ip), vehicle: saline)?
A: 154 % of control

Q: Which T/C (endpoint: mean survival time, dose: 7.82 mg/kg/injection, schedule: Q01DX005 (ip), vehicle: Klucel (hydroxypropylcellulose) (HPC)) does the source give for `CC(=O)Oc1ccc(/C=C2\CCOC2=O)cc1` here?
A: 112 % of control

Q: What about the T/C (endpoint: mean survival time, dose: 15.63 mg/kg/injection, schedule: Q01DX005 (ip), vehicle: Klucel (hydroxypropylcellulose) (HPC)) of the same compound?
A: 101 % of control

Q: What about the T/C (endpoint: mean survival time, dose: 31.25 mg/kg/injection, schedule: Q01DX005 (ip), vehicle: Klucel (hydroxypropylcellulose) (HPC)) of the same compound?
A: 106 % of control

Q: And the T/C (endpoint: mean survival time, dose: 62.5 mg/kg/injection, schedule: Q01DX005 (ip), vehicle: Klucel (hydroxypropylcellulose) (HPC))?
A: 107 % of control

Q: What about the T/C (endpoint: mean survival time, dose: 125.0 mg/kg/injection, schedule: Q01DX005 (ip), vehicle: Klucel (hydroxypropylcellulose) (HPC)) of the same compound?
A: 109 % of control

Q: And the T/C (endpoint: mean survival time, dose: 250.0 mg/kg/injection, schedule: Q01DX005 (ip), vehicle: Klucel (hydroxypropylcellulose) (HPC))?
A: 109 % of control

Source: PubChem BioAssay AID256 (DTP/NCI, 2004)
